Test results reported in patent US20250241893A1, “TREATMENT OF COGNITIVE DYSFUNCTION” (GH RESEARCH IRELAND LIMITED, priority 2022, published 2025).

Legend:
[1] = tested on: Escherichia coli (WP2 uvrA pKM101); assay: Bacterial mutation test in Escherichia coli; format: cell-based; conditions: up to 5000 μg/plate, absence and presence of rat liver S-9
Experimental: These conditions included treatments at concentrations up to 5000 μg/plate (the maximum recommended concentration according to current regulatory guidelines), in the absence and in the presence of a rat liver metabolic activation system (S-9).

[2] = tested on: patients with treatment-resistant major depressive disorder (TRD); assay: Phase 1/2 clinical trial of inhaled 5-MeO-DMT in TRD; conditions: for Patients with at least one ADR: Part A, n=4, all mild, resolved spontaneously
Experimental: Patients were assigned to different groups. In the context of the present invention, the group who received a single, 12 mg dose and the group who underwent an intra-day individualized dosing regimen (IDR) that allowed for multiple, escalating doses (6 mg, 12 mg and 18 mg) within a single day, driven by the intensity of the patient-reported psychedelic experience are of interest.
The data gathered include the assessment of the treated patients against several scales including the Montgomery-Asberg Depression Rating Scale (MADRS) and the Brief Psychiatric Rating Scale (BPRS).
The MADRS item that is of particular relevance to impaired concentration and memory is “concentration difficulties”. This item represents difficulties in collecting one's thoughts mounting to incapacitating lack of concentration and is scored on a scale ranging from 0 to 6. The score is 0 if the patient has no difficulties in concentrating. The score is 2 in case of occasional difficulties in collecting one's thoughts. A score of 4 is assigned in case of difficulties in concentrating and sustaining thought which reduces ability to read or hold a conversation. The score is 6 if the patient is unable to read or converse without great difficulty.
The MADRS item “reduced sleep” represents the experience of reduced duration or depth of sleep compared to the subject's own normal pattern when well. A score of 0 is assigned when the subject sleeps as usual. […] A score of 4 means that sleep is reduced or broken by at least two hours. A score of 6 means less than two or three hours sleep.
This trial was designed in two parts. Part A was an open-label, single-arm, single-dose Phase 1 trial with two dose levels (12 mg (n=4) and 18 mg (n=4)). […] The primary endpoint of Part B was to assess the effects on the severity of depression, as assessed by the proportion of patients in remission on day seven after dosing, defined as a MADRS total score of less than or equal to 10.

[3] = 12 mg n=4, sum of patient scores, 2 hours after dose, baseline 16
[4] = 12 mg n=4, sum of patient scores, day 1, baseline 13
[5] = 12 mg n=4, sum of patient scores, day 1, baseline 16
[6] = 12 mg n=4, sum of patient scores, day 7, baseline 12
[7] = 12 mg n=4, sum of patient scores, day 7, baseline 13
[8] = 12 mg n=4, sum of patient scores, day 7, baseline 16
[9] = IDR n=8, sum of patient scores, day 1, baseline 25
[10] = IDR n=8, sum of patient scores, day 7, baseline 25
[11] = IDR n=8, sum of patient scores, day 7, baseline 30

COc1ccc2[nH]cc(CCN(C)C)c2c1 [5-MeO-DMT]
Mutation induction [1]: did not induce mutation
MADRS Suicidal Thoughts improvement ([2]; 12 mg n=4, sum of patient scores, 2 hours after dose, baseline 8): 5
MADRS Inner Tension improvement ([2]; 12 mg n=4, sum of patient scores, 2 hours after dose, baseline 13): 11
MADRS Concentration Difficulties improvement [2, 3]: 9
MADRS Inability to Feel improvement [2, 3]: 7
MADRS Lassitude improvement [2, 3]: 6
MADRS Pessimistic Thoughts improvement [2, 3]: 8
BPRS Blunted Affect improvement ([2]; 12 mg n=4, sum of patient scores, 3 hours after dose, baseline 11): 3
BPRS Emotional Withdrawal improvement ([2]; 12 mg n=4, sum of patient scores, 3 hours after dose, baseline 13): 2
BPRS Tension improvement ([2]; 12 mg n=4, sum of patient scores, 3 hours after dose, baseline 14): 5
BPRS Guilt Feelings improvement ([2]; 12 mg n=4, sum of patient scores, 3 hours after dose, baseline 18): 9
BPRS Anxiety improvement ([2]; 12 mg n=4, sum of patient scores, 3 hours after dose, baseline 25): 14
MADRS Suicidal Thoughts improvement ([2]; 12 mg n=4, sum of patient scores, day 1, baseline 8): 3
BPRS Blunted Affect improvement ([2]; 12 mg n=4, sum of patient scores, day 1, baseline 11): 5
MADRS Reduced Sleep improvement ([2]; 12 mg n=4, sum of patient scores, day 1, baseline 12): 2
BPRS Emotional Withdrawal improvement [2, 4]: 5
MADRS Inner Tension improvement [2, 4]: 10
BPRS Tension improvement ([2]; 12 mg n=4, sum of patient scores, day 1, baseline 14): 8
MADRS Concentration Difficulties improvement [2, 5]: 14
MADRS Inability to Feel improvement [2, 5]: 15
MADRS Lassitude improvement [2, 5]: 16
MADRS Pessimistic Thoughts improvement [2, 5]: 9
BPRS Guilt Feelings improvement ([2]; 12 mg n=4, sum of patient scores, day 1, baseline 18): 13
BPRS Anxiety improvement ([2]; 12 mg n=4, sum of patient scores, day 1, baseline 25): 19
MADRS Suicidal Thoughts improvement ([2]; 12 mg n=4, sum of patient scores, day 7, baseline 8): 1
BPRS Blunted Affect improvement ([2]; 12 mg n=4, sum of patient scores, day 7, baseline 11): 6
MADRS Reduced Sleep improvement [2, 6]: 6
MADRS Reduced Sleep percentage improvement [2, 6]: 50.00%
BPRS Emotional Withdrawal improvement [2, 7]: 7
MADRS Inner Tension improvement [2, 7]: 8
BPRS Tension improvement ([2]; 12 mg n=4, sum of patient scores, day 7, baseline 14): 8
MADRS Concentration Difficulties improvement [2, 8]: 13
MADRS Inability to Feel improvement [2, 8]: 15
MADRS Lassitude improvement [2, 8]: 13
MADRS Pessimistic Thoughts improvement [2, 8]: 8
BPRS Guilt Feelings improvement ([2]; 12 mg n=4, sum of patient scores, day 7, baseline 18): 13
BPRS Anxiety improvement ([2]; 12 mg n=4, sum of patient scores, day 7, baseline 25): 19
MADRS Suicidal Thoughts improvement ([2]; IDR n=8, sum of patient scores, 2 hours after last dose, baseline 11): 8
MADRS Inner Tension improvement ([2]; IDR n=8, sum of patient scores, 2 hours after last dose, baseline 26): 15
MADRS Lassitude improvement ([2]; IDR n=8, sum of patient scores, 2 hours after last dose, baseline 27): 17
MADRS Pessimistic Thoughts improvement ([2]; IDR n=8, sum of patient scores, 2 hours after last dose, baseline 28): 21
MADRS Concentration Difficulties improvement ([2]; IDR n=8, sum of patient scores, 2 hours after last dose, baseline 30): 19
MADRS Inability to Feel improvement ([2]; IDR n=8, sum of patient scores, 2 hours after last dose, baseline 36): 24
BPRS Emotional Withdrawal improvement ([2]; IDR n=8, sum of patient scores, 3 hours after last dose, baseline 13): 5
BPRS Blunted Affect improvement ([2]; IDR n=8, sum of patient scores, 3 hours after last dose, baseline 15): 4
BPRS Tension improvement ([2]; IDR n=8, sum of patient scores, 3 hours after last dose, baseline 16): 5
BPRS Guilt Feelings improvement ([2]; IDR n=8, sum of patient scores, 3 hours after last dose, baseline 34): 20
BPRS Anxiety improvement ([2]; IDR n=8, sum of patient scores, 3 hours after last dose, baseline 37): 18
MADRS Suicidal Thoughts improvement ([2]; IDR n=8, sum of patient scores, day 1, baseline 11): 10
BPRS Emotional Withdrawal improvement ([2]; IDR n=8, sum of patient scores, day 1, baseline 13): 5
BPRS Blunted Affect improvement ([2]; IDR n=8, sum of patient scores, day 1, baseline 15): 7
BPRS Tension improvement ([2]; IDR n=8, sum of patient scores, day 1, baseline 16): 5
MADRS Reduced Sleep improvement [2, 9]: 13
MADRS Reduced Sleep percentage improvement [2, 9]: 52.00%
MADRS Inner Tension improvement ([2]; IDR n=8, sum of patient scores, day 1, baseline 26): 20
MADRS Lassitude improvement ([2]; IDR n=8, sum of patient scores, day 1, baseline 27): 22
MADRS Pessimistic Thoughts improvement ([2]; IDR n=8, sum of patient scores, day 1, baseline 28): 24
MADRS Concentration Difficulties improvement ([2]; IDR n=8, sum of patient scores, day 1, baseline 30): 29
BPRS Guilt Feelings improvement ([2]; IDR n=8, sum of patient scores, day 1, baseline 34): 23
MADRS Inability to Feel improvement ([2]; IDR n=8, sum of patient scores, day 1, baseline 36): 34
BPRS Anxiety improvement ([2]; IDR n=8, sum of patient scores, day 1, baseline 37): 21
MADRS Suicidal Thoughts improvement ([2]; IDR n=8, sum of patient scores, day 7, baseline 11): 8
BPRS Emotional Withdrawal improvement ([2]; IDR n=8, sum of patient scores, day 7, baseline 13): 5
BPRS Blunted Affect improvement ([2]; IDR n=8, sum of patient scores, day 7, baseline 15): 7
BPRS Tension improvement ([2]; IDR n=8, sum of patient scores, day 7, baseline 16): 6
MADRS Reduced Sleep improvement [2, 10]: 16
MADRS Reduced Sleep percentage improvement [2, 10]: 64.00%
MADRS Inner Tension improvement ([2]; IDR n=8, sum of patient scores, day 7, baseline 26): 14
MADRS Lassitude improvement ([2]; IDR n=8, sum of patient scores, day 7, baseline 27): 24
MADRS Pessimistic Thoughts improvement ([2]; IDR n=8, sum of patient scores, day 7, baseline 28): 25
MADRS Concentration Difficulties improvement [2, 11]: 21
MADRS Concentration Difficulties percentage improvement [2, 11]: 70.00%
BPRS Guilt Feelings improvement ([2]; IDR n=8, sum of patient scores, day 7, baseline 34): 24
MADRS Inability to Feel improvement ([2]; IDR n=8, sum of patient scores, day 7, baseline 36): 30
BPRS Anxiety improvement ([2]; IDR n=8, sum of patient scores, day 7, baseline 37): 20
SAEs ([2]; Part A (12 mg and 18 mg)): No SAEs were reported
Patients with at least one ADR ([2]; 12 mg single dose): 3 of 4
Patients with at least one ADR ([2]; 18 mg single dose): 3 of 4
